From article PMC9105976, “A Novel β-Hairpin Peptide Z-d14CFR Enhances Multidrug-Resistant Bacterial Clearance in a Murine Model of Mastitis” (International Journal of Molecular Sciences, 2022)
Positions of bridges follow the written chain, without caps; N, C: chain ends. Residues, ends and D or L forms follow the SMILES beside them.

Columns and labels:
MRSA ATCC33591 = experiment: MIC/MBC, microdilution broth method; format: cell-based, S. aureus; settings: for MIC: MRSA (methicillin-resistant S. aureus) ATCC33591, 1 × 10^6 CFU/mL, 18 h at 37 °C, NA = no antimicrobial activity at 1 mg/mL; for MBC: MRSA ATCC33591, kills 99.9% bacteria, NA = no activity at 1 mg/mL
Protocol: (§1) The MIC of peptides against bacteria was carried out by the microdilution broth method. The bacterial culture (OD 600 = 0.6) was diluted in 10 mM PBS to 1 × 10^6 CFU/mL. The bacterial suspension (100 μL) was added to 96-well plates, and the same volume of peptides, ampicillin or gentamicin (concentrations ranging from 0.001 to 2 mg/mL) were then added to the same 96-well plates, respectively.

[1] = Retention time of peptide in HPLC (hydrophobicity); format: physicochemical; settings: used as measure of hydrophobicity (order Z-d14CR > Z-d14CF > Z-d13 > Z-d14CFR > Z-d14C); column and gradient not given
[2] = tested on: Staphylococcus aureus ATCC29213; experiment: MIC/MBC, microdilution broth method; format: cell-based; settings: Staphylococcus aureus ATCC29213
Protocol: as §1

[3] = tested on: Staphylococcus haemolyticus CAU202078; experiment: MIC/MBC, microdilution broth method; format: cell-based; settings: Staphylococcus haemolyticus CAU202078 (MDR isolate); for MIC: 1 × 10^6 CFU/mL, 18 h at 37 °C, NA = no antimicrobial activity at 1 mg/mL; for MBC: kills 99.9% bacteria, NA = no activity at 1 mg/mL
Protocol: as §1

[4] = tested on: Proteus vulgaris CVCC1971; experiment: MIC/MBC, microdilution broth method; format: cell-based; settings: Proteus vulgaris CVCC1971; for MIC: 1 × 10^6 CFU/mL, 18 h at 37 °C, NA = no antimicrobial activity at 1 mg/mL; for MBC: kills 99.9% bacteria, NA = no activity at 1 mg/mL
Protocol: as §1

[5] = tested on: Escherichia coli CAU 201919; experiment: MIC/MBC, microdilution broth method; format: cell-based; settings: Escherichia coli CAU 201919 (MDR isolate)
Protocol: as §1

[6] = tested on: Klebsiella pneumoniae CAU202084; experiment: MIC/MBC, microdilution broth method; format: cell-based; settings: Klebsiella pneumoniae CAU202084 (MDR isolate); for MIC: 1 × 10^6 CFU/mL, 18 h at 37 °C, NA = no antimicrobial activity at 1 mg/mL; for MBC: kills 99.9% bacteria, NA = no activity at 1 mg/mL
Protocol: as §1

[7] = tested on: Escherichia coli CVCC1450; experiment: MIC/MBC, microdilution broth method; format: cell-based; settings: Escherichia coli CVCC1450
Protocol: as §1

[8] = tested on: Salmonella typhimurium ATCC14028; experiment: MIC/MBC, microdilution broth method; format: cell-based; settings: Salmonella typhimurium ATCC14028; for MIC: 1 × 10^6 CFU/mL, 18 h at 37 °C, NA = no antimicrobial activity at 1 mg/mL; for MBC: kills 99.9% bacteria, NA = no activity at 1 mg/mL
Protocol: as §1

[9] = tested on: Streptococcus suis CVCC3307; experiment: MIC/MBC, microdilution broth method; format: cell-based; settings: Streptococcus suis CVCC3307; for MIC: 1 × 10^6 CFU/mL, 18 h at 37 °C, NA = no antimicrobial activity at 1 mg/mL; for MBC: kills 99.9% bacteria, NA = no activity at 1 mg/mL
Protocol: as §1

[10] = 1 × 10^6 CFU/mL, 18 h at 37 °C, NA = no antimicrobial activity at 1 mg/mL
[11] = kills 99.9% bacteria, NA = no activity at 1 mg/mL

Compound | MIC (MRSA ATCC33591) | MBC (MRSA ATCC33591) | RT, retention time of peptide in HPLC [1] [min] | MIC [2, 10] | MBC [2, 11] | MIC [3] | MBC [3] | MIC [4] | MBC [4] | MIC [5, 10] | MBC [5, 11] | MIC [6] | MBC [6] | MIC [7, 10] | MBC ([7]; minimum concentration which kills 99.9% bacteria, NA = no activity at 1 mg/mL) | MIC [8] | MBC [8] | MIC [9] | MBC [9]
CC(C)[C@@H]1NC(=O)[C@@H]2CSSC[C@H](NC(=O)[C@H](Cc3ccc(O)cc3)NC(=O)[C@@H](NC(=O)CNC(=O)[C@@H](N)CCCNC(=N)N)CSSC[C@@H](C(=O)N[C@@H](CCCNC(=N)N)C(N)=O)NC1=O)C(=O)N[C@@H](CC(N)=O)C(=O)N[C@@H](CO)C(=O)N[C@@H](CCCCN)C(=O)N[C@@H](CO)C(=O)N[C@@H](C(C)C)C(=O)N2 [Z-d14C] (H-RGCYCNSKSVCVCR-NH2; disulfide 3-13, 5-11; N-terminus assumed) | NA (NA) (No antimicrobial activity at 1 mg/mL) | NA (NA) (No antimicrobial activity at 1 mg/mL) | 7.809 | NA (NA) (No antimicrobial activity at 1 mg/mL) | NA (NA) (No antimicrobial activity at 1 mg/mL) | NA (NA) (No antimicrobial activity at 1 mg/mL) | NA (NA) (No antimicrobial activity at 1 mg/mL) | NA (NA) (No antimicrobial activity at 1 mg/mL) | NA (NA) (No antimicrobial activity at 1 mg/mL) | NA (NA) (No antimicrobial activity at 1 mg/mL) | NA (NA) (No antimicrobial activity at 1 mg/mL) | NA (NA) (No antimicrobial activity at 1 mg/mL) | NA (NA) (No antimicrobial activity at 1 mg/mL) | NA (NA) (No antimicrobial activity at 1 mg/mL) | NA (NA) (No antimicrobial activity at 1 mg/mL) | NA (NA) (No antimicrobial activity at 1 mg/mL) | NA (NA) (No antimicrobial activity at 1 mg/mL) | NA (NA) (No antimicrobial activity at 1 mg/mL) | NA (NA) (No antimicrobial activity at 1 mg/mL)
CC(C)[C@@H]1NC(=O)[C@@H]2CSSC[C@H](NC(=O)[C@H](CCCNC(=N)N)NC(=O)[C@@H](NC(=O)CNC(=O)[C@@H](N)CCCNC(=N)N)CSSC[C@@H](C(=O)N[C@@H](CCCNC(=N)N)C(N)=O)NC1=O)C(=O)N[C@@H](CC(N)=O)C(=O)N[C@@H](CO)C(=O)N[C@@H](CCCCN)C(=O)N[C@@H](CO)C(=O)N[C@@H](C(C)C)C(=O)N2 [Z-d14CR] (H-RGCRCNSKSVCVCR-NH2; disulfide 3-13, 5-11; N-terminus assumed) | NA (NA) (No antimicrobial activity at 1 mg/mL) | NA (NA) (No antimicrobial activity at 1 mg/mL) | 10.159 | – | – | NA (NA) (No antimicrobial activity at 1 mg/mL) | NA (NA) (No antimicrobial activity at 1 mg/mL) | NA (NA) (No antimicrobial activity at 1 mg/mL) | NA (NA) (No antimicrobial activity at 1 mg/mL) | – | – | NA (NA) (No antimicrobial activity at 1 mg/mL) | NA (NA) (No antimicrobial activity at 1 mg/mL) | – | – | NA (NA) (No antimicrobial activity at 1 mg/mL) | NA (NA) (No antimicrobial activity at 1 mg/mL) | NA (NA) (No antimicrobial activity at 1 mg/mL) | NA (NA) (No antimicrobial activity at 1 mg/mL)
